Test [1] has as its target T1, LasR transcriptional activator (Pseudomonas aeruginosa, UniProt P25084).
T1 construct: expressed in transfected cells; host or cells: Pseudomonas putida F117 carrying plasmid pKRC12 (lasR, PlasB-gfp)
In words: Screen signal of thiocarbamate compounds (Table 1), GFP AHL sensor strain with LasR. In kind it is cell-based. The text has this: A screening system with green fluorescent protein as a reporter gene was adapted in a non-pathogenic species, Pseudomonas putida, closely related to Pseudomonas aeruginosa. A key element involved in the regulation of Pseudomonas aeruginosa, LasR, was engineered into the GFP construct (see FIG. 2), such that expression of GFP is linked to quorum sensing. Pseudomonas putida was then subjected to induction (e.g. by 3oxoC12HsL or 3oxoC10HsL) and/or inhibition by candidate chemical compounds from a commercially available combinatorial library. About 16,000 candidate compounds were individually screened.
Many Gram negative bacteria use quorum sensing, an intercellular signaling network that relies on N-acyl homoserine lactone signal molecules (AHL), to regulate and coordinate behaviors and interactions. Expression of quorum sensing-regulated genes is contingent on a LuxR-type transcriptional regulator and the accumulation of a threshold concentration of the cognate AHL. The experiments in this example relate to screening assays carried out to identify compounds that interfere with virulence gene expression under the control of the LasR transcriptional activator, a member of the LuxR family of transcriptional regulators. The inventors screened a library of approximately 16,000 synthetic compounds for induction and inhibition of quorum sensing in a Pseudomonas putida AHL sensor strain, engineered with the LasR transcriptional activator, which controls virulence gene expression in Pseudomonas aeruginosa. LasR mediated gene expression was monitored by measuring green fluorescent protein (GFP) expression from a transcriptional fusion between GFP and the promoter from lasB, which is under the control of LasR. lasB is a virulence gene that encodes an elastase involved in pathogenesis.
The initial screen utilized 3oxoC10HSL [N-(3-oxo-decanoyl)-L-homoserine lactone] as the inducer of LasR mediated signaling to identify compounds that compete with 3oxoC10HSL for half-maximal activation of GFP expression by the AHL reporter. This strategy enables identification of agonists and antagonists of LasR by pursuing compounds that either reduce or augment the activity of the AHL. The inventors further analyzed the antagonists in competition with 3oxoC12HSL [N-(3-oxo-dodecanoyl)-L-homoserine lactone]. The activities of the agonists were further characterized in the absence of AHL.
To determine the effects of compounds on AHL-mediated quorum sensing, the reporter strain P. putida F117 pKRC12 was grown overnight at 28° C. in LB media, diluted with LB media to achieve an optical density of 0.05 at 600 nm (OD600), and 28 μl aliquots of cells were added to 384-well plates. 16,000 compounds were screened from a subset of the Chembridge DIVERSet, each at a final concentration of 100 nM. Bacterial cells at a final volume of 30 μl were incubated with the compounds for approximately 30 minutes prior to the addition of 3oxoC10HSL, at a final concentration of 100 nM. All of the compounds were dissolved in DMSO. DMSO was included in all controls. A Biomek FX liquid handler was used to dispense the reagents and bacteria into the 384-well plates. The initial screen was performed at room temperature. Fluorescence was measured at regular intervals after 3 hours using the EnVision plate reader (Perkin Elmer, inc.) with an excitation wavelength of 485 nm and emission detection at 510 nm. Compounds that reduced or increased the expression of GFP by a factor of greater than or equal three standard deviations from the mean values for controls containing 3oxoC10HSL were chosen for further analysis. Compounds that increased the expression of GFP by three standard deviations were designated as putative agonists. Compounds that decreased the expression of GFP by three standard deviations were designated as putative antagonists.

Test [2] concerns the target T1, LasR transcriptional activator. In words: P. putida F117 pKRC12 lasB-GFP reporter assay (secondary screens). In kind it is cell-based. As to conditions: compounds 10 μM, relative fluorescence (fluorescence divided by absorbance at 600 nm) as percent of AHL induced control; for % Activity of AHL Standard, 3 oxo C10HSL: 3oxoC10HSL 100 nM; for % Activity of AHL Standard, 3 oxo C12HSL: 3oxoC12HSL 50 nM. Here is the method: Additional screens were performed similar to screen described in the initial screen, except assays were performed in 96-well microtiter plates at a total volume of 100 μl. The reporter strain P. putida F117 pKRC12 was grown overnight at 28° C. in LB media, diluted with LB media to achieve an optical density of 0.05 at 600 nm (OD600), and 96 μl of cells were aliquoted to 96-well plates. Compounds were added at a final concentration of 100 nm or as otherwise indicated in each experiment and the bacterial cells were incubated with the compounds for approximately 30 minutes prior to the addition of 3oxoC10HSL or 3oxoC12HSL at a final concentration of 100 nM and 50 nM respectively or as indicated for each experiment. Fluorescence was measured at regular intervals after 3 hours using the Wallac Victor2 plate reader with an excitation wavelength of 485 nm and emission detection at 515 nm. Representative results are presented in FIGS. 6A and B and present the percentage of GFP expression activity as a function of expression of the AHL (3oxoC10 HSL) control. The numbers on the X axis refer to the Chembridge library reference number. Effects on growth of the antagonists were determined by measuring the optical density at 600 nm of growing bacterial cultures P. putida F 117 pKRC 12. […] (Reference for P. putida F117 pKRC12: Steidle, A., K. Sigl, R. Schuhegger, A. Ihring, M. Schmid, S. Gantner, M. Stoffels, K. Riedel, M. Givskov, A. Hartmann, C. Langebartels, and L. Eberl. 2001. Visualization of N-acylhomoserine lactone-mediated cell-cell communication between bacteria colonizing the tomato rhizosphere. Appl Environ Microbiol 67:5761-70). […]
This example presents representative results of experiments designed to test the activity of putative antagonists when challenged with different concentrations of synthetic AHLs, particularly 3oxoC12HSL. Assays were conducted with P. putida F117 pKRC12 reporter strain as described in the methods for secondary screens.
Following the initial screens to identify strong antagonists of the LasR transcriptional activator, further investigation of additional compounds in the Chembridge library was carried out. In particular, the experiments described in Example 1 identified three compounds that shared a thiocarbamate structure, as also shown in FIG. 16. To further investigate structure-activity relationships, the inventors examined the antagonist activity of 19 additional compounds with related thiocarbamate structures, using the procedures described in Example 1. The results are presented in Table 4, expressed as the percent activity of the AHL induced control. The % activity represents the relative fluorescence, which is the fluorescence observed in each assay divided by bacterial cell density as measured by absorbance at 600 nm. Compounds were assayed at a concentration of 10 μM. Assays were conducted with P. putida F117 pKRC12 reporter strain as described in the methods for secondary screens. The 3oxoC10HSL and 3oxoC12HSL were assayed at concentrations of 100 nM and 50 nM, respectively.
A general note: In a reporter assay the amount or activity of a reporter protein is the signal.

T1 sequence (P25084 whole entry): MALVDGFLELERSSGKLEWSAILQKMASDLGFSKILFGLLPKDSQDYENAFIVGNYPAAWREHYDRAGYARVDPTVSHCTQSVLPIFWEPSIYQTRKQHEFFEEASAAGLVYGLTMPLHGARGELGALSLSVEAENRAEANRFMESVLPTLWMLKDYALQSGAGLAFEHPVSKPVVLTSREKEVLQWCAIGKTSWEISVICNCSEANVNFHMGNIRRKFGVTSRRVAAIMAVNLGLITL

On to `NC(=O)SCC(=O)Nc1ccccc1Br` [Compound 5949674], for which, in test [1], the “Signal 671/672” value is 184012, the “Signal 673/674” value turned out to be 227644 and the “Signal 674/875” value came out at 1811011.
For `COC(=O)c1ccccc1NC(=O)CSC(N)=O` [Compound 5951673], in test [1], the “Signal 671/672” value is 135505, the “Signal 673/674” value is 176618 and the “Signal 674/875” value is 1041625.
In the same order, the values of `NC(=O)SCC(=O)Nc1ccccc1Cl` [Compound 5956488] are 120221, 145117 and 867440.
Regarding `NC(=O)SCC(=O)Nc1ccc(Br)cc1` [Compound 15], in test [2], the “% Activity of AHL Standard, 3 oxo C10HSL” value came to 39.00% and the “% Activity of AHL Standard, 3 oxo C12HSL” value stood at 70.10%.
In the same order, the values of `NC(=O)SCC(=O)Nc1cccc(I)c1` [Compound 17] are 67.20% and 81.20%.
Consider `Cc1ccc(Cl)cc1NC(=O)CSC(N)=O` [Compound 5], for which, in test [2], the “% Activity of AHL Standard, 3 oxo C10HSL” value is 56.73% and the “% Activity of AHL Standard, 3 oxo C12HSL” value amounted to 47.85%.
Taken in the same sequence, the figures for `Cc1ccc(NC(=O)CSC(N)=O)cc1Cl` [Compound 3] were 32.27% and 41.63%.
Consider `NC(=O)SCC(=O)Nc1ccc(I)cc1` [Compound 5955203], for which, in test [1], the “Signal 671/672” value is recorded as 375590, the “Signal 673/674” value stood at 386242 and the “Signal 674/875” value is on record as 1805793.
Taken in the same sequence, the figures for `COc1cccc(NC(=O)CSC(N)=O)c1` [Compound 5956868] were 246680, 243693 and 1277307.
With `NC(=O)SCC(=O)Nc1cccc(Cl)c1` [Compound 5953997], in test [1], the “Signal 671/672” value is given as 71274, the “Signal 673/674” value is on record as 87420 and the “Signal 674/875” value is 218815.
Take `NC(=O)SCC(=O)Nc1ccc(Cl)c(Cl)c1` [Compound 20]: in test [2], the “% Activity of AHL Standard, 3 oxo C10HSL” value is recorded as 40.50% and the “% Activity of AHL Standard, 3 oxo C12HSL” value was determined as 87.70%.
Consider `NC(=O)SCC(=O)Nc1cccc(F)c1` [Compound 5949713], for which, in test [1], the “Signal 671/672” value turned out to be 100580, the “Signal 673/674” value came out at 97648 and the “Signal 674/875” value was found to be 265386.
For the molecule `Cc1cccc(NC(=O)CSC(N)=O)c1` [Compound 10], in test [2], the “% Activity of AHL Standard, 3 oxo C10HSL” value is 49.10% and the “% Activity of AHL Standard, 3 oxo C12HSL” value came to 55.40%.
Consider `Cc1cccc(NC(=O)CSC(N)=O)c1C` [Compound 5956611], for which, in test [1], the “Signal 671/672” value is 116987, the “Signal 673/674” value worked out at 131695 and the “Signal 674/875” value is listed as 703195.
`CCOC(=O)c1ccccc1NC(=O)CSC(N)=O` [Compound 2]: in test [2], the “% Activity of AHL Standard, 3 oxo C10HSL” value was determined as 35.50% and the “% Activity of AHL Standard, 3 oxo C12HSL” value is reported as 40.09%.
Turning to `CC(=O)c1ccc(NC(=O)CSC(N)=O)cc1` [Compound 5952389], in test [1], the “Signal 671/672” value is 464145, the “Signal 673/674” value turned out to be 594209 and the “Signal 674/875” value came out at 1805803.
In the same order, the values of `Cc1ccc(NC(=O)CSC(N)=O)c(C)c1` [Compound 5955325] are 120271, 134098 and 694077.
Taken in the same sequence, the figures for `Cc1ccc(Cl)cc1NC(=O)CSC(N)=O` [Compound 5948544] were 120140, 98180 and 418594.
With `COc1ccc(NC(=O)CSC(N)=O)c(OC)c1` [Compound 5950824], in test [1], the “Signal 671/672” value was 358647, the “Signal 673/674” value was determined as 332745 and the “Signal 674/875” value was 1769017.
Taken in the same sequence, the figures for `NC(=O)SCC(=O)Nc1ccc(Br)cc1` [Compound 5948339] were 99889, 122318 and 382242.
In the same order, the values of `NC(=O)SCC(=O)Nc1ccc(Cl)c(Cl)c1` [Compound 5949527] are 314238, 171491 and 686157.
In the same order, the values of `COC(=O)c1ccc(NC(=O)CSC(N)=O)cc1` [Compound 5952057] are 161090, 186369 and 1124336.
In the case of `NC(=O)SCC(=O)Nc1ccccc1O` [Compound 5947920], in test [1], the “Signal 671/672” value amounted to 31966, the “Signal 673/674” value turned out to be 33599 and the “Signal 674/875” value amounted to 35234.
In the same order, the values of `COc1ccc(NC(=O)CSC(N)=O)cc1` [Compound 5948690] are 580722, 341731 and 1742777.
In the same order, the values of `CCOC(=O)c1ccccc1NC(=O)CSC(N)=O` [Compound 5952120] are 29681, 31840 and 32358.
Taken in the same sequence, the figures for `COc1ccccc1NC(=O)CSC(N)=O` [Compound 5947535] were 99128, 169923 and 572429.
Turning to `Cc1ccc(NC(=O)CSC(N)=O)cc1Cl` [Compound 5952472], in test [1], the “Signal 671/672” value came to 176752, the “Signal 673/674” value is listed as 223255 and the “Signal 674/875” value is reported as 652341.
With `Cc1cccc(NC(=O)CSC(N)=O)c1` [Compound 5955821], in test [1], the “Signal 671/672” value stood at 266776, the “Signal 673/674” value was determined as 285870 and the “Signal 674/875” value is on record as 1575457.

The values are drawn from patent US8063108B2, “Method for modulating microbial quorum sensing” (priority 2004, dated 2011).
